From patent US9738640B2, “Substituted benzamide derivatives as in vitro MAO-B inhibitors” (“NTZ LAB” Ltd., priority 2013, dated 2017)

Assays:
Format in all cases: biochemical
rat MAO-A = rat MAO-A (Rattus norvegicus (Rat), UniProt P21396); experiment: Rat MAO-A assay (Amplex Red fluorescence, rat liver mitochondria); settings: deprenyl-pretreated, substrate p-tyramine 300 μM
Procedure: (§1) The MAO-A and MAO-B enzyme activity of the compounds, according to the present invention, was estimated following an assay adapted from the method described by Holt et al. (Anal. Biochem. 244, 384-392, 1997). The MAO experiments were performed using a fluorescence-based detection of resorufin, obtained by a reaction of released from the biological sample hydrogen peroxide with 10-acetyl-3,7-dihydroxyphenoxazine (ADHP) in the presence of a peroxidase (horseradish peroxidase-coupled reaction, HRP). The inhibitory in vitro MAO activity of the compounds of general Formula I was investigated at rat and human MAO-A and MAO-B. To perform rat MAO-A and MAO-B experiments, a preliminary membrane preparation of mitochondrial-enriched rat livers isolated from male Sprague-Dawley rats (Harlan Sprague Dawley, Dublin, US) was required. As sources for recombinant human MAO-A and MAO-B enzymes were used microsomal products, prepared from baculovirus-infected insect cells expressing human MAO-A (Sigma-Aldrich, M7316) and human MAO-B (Sigma-Aldrich, M7441), respectively.
(§2) To estimate MAO inhibitory activity of the compounds of Formula I at rat and human MAO-A and MAO-B, the corresponding test compound was dissolved in 100% DMSO and subsequently added to the appropriate enzyme solution containing rat liver mitochondria (rat MAO-A and -B) or recombinant human protein (for determination of human MAO-A and -B) in sodium phosphate buffer. The test sample was incubated for 30 min at room temperature prior to the addition of Amplex Red reagent (Invitrogen A12214) using for the fluorescence-based measuring of MAO inhibitory activity. The enzymatic reaction was started by the addition of the substrate p-tyramine. The fluorescence measurements were performed over a period of 45 min using a microplate fluorescence reader (excitation at 544 nm and emission at 590 nm). IC50 values were determined from the inhibition curves obtained using different inhibitor concentrations in triplicate within the same experiment. A four-parameter logistic equation was used to fit the dose-response curves for test compounds using a computer program.
(§3) MAO-A and MAO-B enzymatic activity of the compounds was measured in 96-well-plates using a continuous fluorescence-based assay. This assay was adapted from the method described by Holt et al. (Anal. Biochem., 244, 384-392, 1997). The MAO experiments were performed using the commercial assay kit Amplex Red (Invitrogen A12214). The kit was stored frozen at ≦−20° C. and protected from light before use. The Amplex Red MAO assay kit was used for the detection of H2O2 released from the biological sample. Subsequently, a reaction of 10-acetyl-3,7-dihydroxyphenoxazine (ADHP, Amplex Red reagent) with H2O2 in the presence of a peroxidase (horse-radish peroxidase-coupled reaction, HRP) led to the production of resorufin. The quantification of hydrogen peroxide released from the biological sample and the subsequent production of resorufin was monitored using a fluorescence microplate reader (Holt et al., Anal. Biochem., 244, 384-392, 1997). To ensure an optimal efficiency of the Amplex Red reagent, the MAO assay's were performed at pH 7.4.
MAO enzyme-containing mitochondrial-enriched fractions of rat were obtained from male Sprague-Dawley rat livers (250-300 g, Harlan Sprague-Dawley, Dublin, Va., US). The livers (10.0 g) were dissected, given into 15.0 mL of an ice-cold 5.0 mM Hepes buffer (pH 7.4), containing 210 mM mannitol, 70 mM sucrose, 0.5 mM ethylene glycoltetraacetic acid (EGTA), and 2.0 mg/mL of bovine serum albumin (BSA), and homogenized using a glass/Teflon potter (10 ups and downs at 1100 rpm). After homogenization, the volume is adjusted to 100 mL with the same buffer. After a low speed centrifugation (10 min at 600 g; 4° C.), the supernatant was further centrifuged at 15,000 rpm for 5 min at +4° C. […]

human MAO-A = human MAO-A (Homo sapiens (Human), UniProt P21397); experiment: Human MAO-A assay (Amplex Red fluorescence, recombinant enzyme); settings: substrate p-tyramine 150 μM
Procedure: as §1, §2, §3
Recombinant human MAO-A enzyme, expressed in baculovirus-infected insect cells, was purchased from Sigma-Aldrich (M7316). The assay was carried out in 96-well plates in a final volume of 200 μL at room temperature. According to the experiment protocol, a solution of test compound (2.0 μL) in DMSO (100%) was added to 90.0 μL of protein solution (0.3 μg prot/well, containing 6.6 μL protein and […] phosphate buffer) and incubated for 30 min prior to the addition of 90 μL of freshly prepared Amplex Red reagent. The Amplex Red reagent was prepared as described for rat MAO-A. The enzymatic reaction was started by the addition of 20.0 μL/well of an aqueous solution of the substrate p-tyramine (150 μM final concentration). […]

rat MAO-B = rat MAO-B (Rattus norvegicus (Rat), UniProt P19643); experiment: Rat MAO-B assay (Amplex Red fluorescence, rat liver mitochondria); settings: clorgyline-pretreated, substrate p-tyramine
Procedure: (§4) To estimate MAO inhibitory activity of the compounds of Formula I at rat and human MAO-A and MAO-B, the corresponding test compound was dissolved in 100% DMSO and subsequently added to the appropriate enzyme solution containing rat liver mitochondria (rat MAO-A and -B) or recombinant human protein (for determination of human MAO-A and -B) in sodium phosphate buffer. The test sample was incubated for 30 min at room temperature prior to the addition of Amplex Red reagent (Invitrogen A12214) using for the fluorescence-based measuring of MAO inhibitory activity. The enzymatic reaction was started by the addition of the substrate p-tyramine. […] IC50 values were determined from the inhibition curves obtained using different inhibitor concentrations in triplicate within the same experiment. A four-parameter logistic equation was used to fit the dose-response curves for test compounds using a computer program.
MAO enzyme-containing mitochondrial-enriched fractions of rat were obtained from male Sprague-Dawley rat livers (250-300 g, Harlan Sprague-Dawley, Dublin, Va., US). The livers (10.0 g) were dissected, given into 15.0 mL of an ice-cold 5.0 mM Hepes buffer (pH 7.4), containing 210 mM mannitol, 70 mM sucrose, 0.5 mM ethylene glycoltetraacetic acid (EGTA), and 2.0 mg/mL of bovine serum albumin (BSA), and homogenized using a glass/Teflon potter (10 ups and downs at 1100 rpm). After homogenization, the volume is adjusted to 100 mL with the same buffer. After a low speed centrifugation (10 min at 600 g; 4° C.), the supernatant was further centrifuged at 15,000 rpm for 5 min at +4° C. The resulting pellet was resuspended in 2.0 mL of a 50 mM sodium phosphate buffer (pH 7.4) and stored at −80° C. in aliquots of 1.0 mL until further use.
Assays were performed in 96-well plates in a final volume of 200 μL at room temperature. […] Test compounds (2.0 μL), dissolved in DMSO (100%), were added to 90.0 μL of mitochondrial preparation (25.0 μg prot) and incubated for 30 min prior to the addition of 90 μL of freshly prepared Amplex Red reagent, prepared as recommended in the kit from Invitrogen (A12214). For a 96-well plate, 1.0 mg of Amplex Red, dissolved in 200 μL of DMSO (100%) and 100 μL of reconstituted horse-radish peroxidase (HRP 200 U/mL, Sigma Aldrich P6782) stock solution (kit vial+1.0 mL of sodium phosphate buffer) were added to 9700 μL of sodium phosphate buffer (250 mM at pH 7.4).

human MAO-B = human MAO-B (Homo sapiens (Human), UniProt P27338); experiment: Human MAO-B assay (Amplex Red fluorescence, recombinant enzyme); settings: substrate p-tyramine
human MAO-B, sequence (P27338 whole entry): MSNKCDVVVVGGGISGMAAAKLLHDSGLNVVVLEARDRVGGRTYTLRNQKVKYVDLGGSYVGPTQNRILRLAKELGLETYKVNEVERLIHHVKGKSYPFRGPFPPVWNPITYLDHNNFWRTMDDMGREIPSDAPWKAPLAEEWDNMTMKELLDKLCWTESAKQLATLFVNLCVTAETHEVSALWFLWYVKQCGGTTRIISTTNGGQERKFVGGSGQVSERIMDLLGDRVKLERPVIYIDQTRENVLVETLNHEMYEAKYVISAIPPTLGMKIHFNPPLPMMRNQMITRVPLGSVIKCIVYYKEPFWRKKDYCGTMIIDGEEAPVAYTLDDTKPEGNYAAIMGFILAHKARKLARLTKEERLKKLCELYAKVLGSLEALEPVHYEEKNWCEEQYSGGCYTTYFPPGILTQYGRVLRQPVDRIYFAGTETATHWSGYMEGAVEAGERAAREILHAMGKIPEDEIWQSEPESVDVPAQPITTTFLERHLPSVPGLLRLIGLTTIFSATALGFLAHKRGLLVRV
Procedure: as §4
MAO-A and MAO-B enzymatic activity of the compounds was measured in 96-well-plates using a continuous fluorescence-based assay. […] The MAO experiments were performed using the commercial assay kit Amplex Red (Invitrogen A12214). The kit was stored frozen at ≦−20° C. and protected from light before use. The Amplex Red MAO assay kit was used for the detection of H2O2 released from the biological sample. Subsequently, a reaction of 10-acetyl-3,7-dihydroxyphenoxazine (ADHP, Amplex Red reagent) with H2O2 in the presence of a peroxidase (horse-radish peroxidase-coupled reaction, HRP) led to the production of resorufin. […] To ensure an optimal efficiency of the Amplex Red reagent, the MAO assay's were performed at pH 7.4.
The assay was carried out in 96-well plates in a final volume of 200 μL at room temperature. According to the experiment protocol, a solution of test compound (2.0 μL) in DMSO (100%) was added to 90.0 μL of protein solution (0.3 μg prot/well, containing 6.6 μL protein and 9.993 μL phosphate buffer) and incubated for 30 min prior to the addition of 90 μL of freshly prepared Amplex Red reagent. […] The p-tyramine solution was prepared from p-tyramine hydrochloride (45 μL) in water (100 mM) and phosphate buffer (2955 μL). […] DMSO (2.0 μL) was used as a negative control.
Recombinant human MAO-B enzyme, expressed in baculovirus-infected insect cells, was purchased from Sigma-Aldrich (M7441).

rat MAO-A, sequence (P21396 whole entry): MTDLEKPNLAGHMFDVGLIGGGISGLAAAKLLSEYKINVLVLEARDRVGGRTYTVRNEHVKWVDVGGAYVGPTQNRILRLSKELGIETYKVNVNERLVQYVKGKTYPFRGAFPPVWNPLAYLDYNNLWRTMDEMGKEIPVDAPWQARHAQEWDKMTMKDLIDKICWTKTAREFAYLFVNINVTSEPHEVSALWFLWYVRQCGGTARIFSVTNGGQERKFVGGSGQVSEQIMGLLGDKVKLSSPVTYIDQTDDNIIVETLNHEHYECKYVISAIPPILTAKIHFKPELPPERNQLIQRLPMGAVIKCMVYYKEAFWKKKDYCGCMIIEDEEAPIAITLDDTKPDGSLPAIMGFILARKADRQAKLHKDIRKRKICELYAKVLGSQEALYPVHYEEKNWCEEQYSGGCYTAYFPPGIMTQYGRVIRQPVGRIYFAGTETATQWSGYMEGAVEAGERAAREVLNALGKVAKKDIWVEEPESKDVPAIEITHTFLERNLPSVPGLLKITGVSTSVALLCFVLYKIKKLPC
rat MAO-B, sequence (P19643 whole entry): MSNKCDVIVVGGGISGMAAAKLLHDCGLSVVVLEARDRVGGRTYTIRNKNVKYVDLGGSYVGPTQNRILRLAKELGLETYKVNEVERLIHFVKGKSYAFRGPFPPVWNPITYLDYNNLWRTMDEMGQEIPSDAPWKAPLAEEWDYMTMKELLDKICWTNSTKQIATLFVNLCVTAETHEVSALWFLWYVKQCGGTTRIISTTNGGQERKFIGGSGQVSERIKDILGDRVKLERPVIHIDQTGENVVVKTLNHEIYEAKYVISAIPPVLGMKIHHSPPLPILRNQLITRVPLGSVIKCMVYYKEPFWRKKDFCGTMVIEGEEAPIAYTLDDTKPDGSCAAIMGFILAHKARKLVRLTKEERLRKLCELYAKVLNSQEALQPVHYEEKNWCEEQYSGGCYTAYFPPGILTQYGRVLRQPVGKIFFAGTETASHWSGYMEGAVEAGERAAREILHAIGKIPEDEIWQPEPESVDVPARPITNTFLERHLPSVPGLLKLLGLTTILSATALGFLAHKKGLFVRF
human MAO-A, sequence (P21397 whole entry): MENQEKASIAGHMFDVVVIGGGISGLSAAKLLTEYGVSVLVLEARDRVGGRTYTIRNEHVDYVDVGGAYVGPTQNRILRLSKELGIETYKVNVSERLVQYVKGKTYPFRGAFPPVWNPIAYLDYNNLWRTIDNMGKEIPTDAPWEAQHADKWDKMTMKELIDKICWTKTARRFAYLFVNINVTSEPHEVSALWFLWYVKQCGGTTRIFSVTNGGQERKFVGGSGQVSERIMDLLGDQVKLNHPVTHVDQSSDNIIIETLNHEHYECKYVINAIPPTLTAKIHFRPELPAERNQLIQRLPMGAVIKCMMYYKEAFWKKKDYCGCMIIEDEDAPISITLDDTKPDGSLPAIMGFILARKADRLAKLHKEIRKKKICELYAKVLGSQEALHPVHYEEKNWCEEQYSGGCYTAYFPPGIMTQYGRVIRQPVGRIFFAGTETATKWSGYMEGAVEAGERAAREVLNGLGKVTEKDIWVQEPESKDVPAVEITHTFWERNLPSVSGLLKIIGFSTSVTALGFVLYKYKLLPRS

O=C(Nc1ccc2[nH]ccc2n1)c1ccc(Cl)c(Cl)c1 [Example 1, 3,4-dichloro-N-(1H-pyrrolo[3,2-b]pyridin-5-yl)benzamide]
IC50 (rat MAO-A): > 10000 nM
IC50 (human MAO-A): > 10000 nM

O=C(Nc1ccc2[nH]ccc2n1)c1ccc(F)c(F)c1 [Example 4, 3,4-difluoro-N-(1H-pyrrolo[3,2-b]pyridin-5-yl)benzamide]
IC50 (rat MAO-A): > 10000 nM
IC50 (rat MAO-B): 153 ± 11 nM
IC50 (human MAO-A): > 10000 nM
IC50 (human MAO-B): 46.1 ± 1.5 nM

O=C(Nc1ccc2[nH]ccc2n1)c1ccc(Cl)c(F)c1 [Example 3, 4-chloro-3-fluoro-N-(1H-pyrrolo[3,2-b]pyridin-5-yl)benzamide]
IC50 (rat MAO-A): > 10000 nM
IC50 (rat MAO-B): 85.5 ± 5.8 nM
IC50 (human MAO-A): > 10000 nM
IC50 (human MAO-B): 10.9 ± 0.75 nM

O=C(Nc1cc2cc[nH]c2cn1)c1ccc(F)c(Cl)c1 [Example 7, 3-chloro-4-fluoro-N-(1H-pyrrolo[2,3-c]pyridin-5-yl)benzamide]
IC50 (rat MAO-A): < 10000 nM
IC50 (rat MAO-B): 158 ± 16 nM
IC50 (human MAO-A): < 10000 nM
IC50 (human MAO-B): 72 ± 2.6 nM

O=C(Nc1ccc2[nH]ccc2n1)c1ccc(F)c(Cl)c1 [Example 2, 3-chloro-4-fluoro-N-(1H-pyrrolo[3,2-b]pyridin-5-yl)benzamide]
IC50 (rat MAO-A): > 10000 nM
IC50 (rat MAO-B): 4.9 ± 0.33 nM
IC50 (human MAO-A): > 10000 nM
IC50 (human MAO-B): 3.27 ± 0.04 nM

O=C(Nc1cc2cc[nH]c2cn1)c1ccc(Cl)c(Cl)c1 [Example 6, 3,4-dichloro-N-(1H-pyrrolo[2,3-c]pyridin-5-yl)benzamide]
IC50 (rat MAO-A): ≥ 10000 nM
IC50 (rat MAO-B): 224 ± 17 nM
IC50 (human MAO-A): < 10000 nM
IC50 (human MAO-B): 28.5 ± 2.4 nM

O=C(Nc1cc2cc[nH]c2cn1)c1ccc(F)c(F)c1 [Example 8, 3,4-difluoro-N-(1H-pyrrolo[2,3-c]pyridin-5-yl)benzamide]
IC50 (rat MAO-A): > 10000 nM
IC50 (human MAO-A): > 10000 nM
IC50 (human MAO-B): 277 ± 12 nM

O=C(Nc1ccc2c(ccn2C(=O)c2ccc(Cl)c(F)c2)n1)c1ccc(Cl)c(F)c1 [Example 5, 4-chloro-N-(1-(4-chloro-3-fluorobenzoyl)-1H-pyrrolo[3,2-b]pyridin-5-yl)-3-fluorobenzamide]
IC50 (rat MAO-A): > 10000 nM
IC50 (rat MAO-B): 246 ± 53 nM
IC50 (human MAO-A): > 10000 nM
IC50 (human MAO-B): 27.5 ± 2 nM
